Entries after “also recorded” stand apart in the source; their conditions may differ.
Tested on: mesenteric venules
Assay: Diameters of mesenteric venules after I/R
Type: in vivo
Conditions: rat mesenteric I/R
Protocol: The rats were anesthetized by intraperitoneal injection of pentobarbital sodium (30 mg/kg body weight (BW)). PE venous cannulas (#3) were cannulated into the right jugular of the rats and detained. The abdomen of each rat was incised in a length of 20-30 mm along the midline. The ileum near the ileocecal junctions was gently taken out and unfolded onto the object stage mounted with glass slides. The unfolded mesenteries were continuously dripped with Krebs-Ringer buffering solution at 37° C. The microcirculatory dynamics of the mesenteries was observed under white light (12V, 100 W) using an inverted biomicroscope (Diaphot TMD-2S, Nikon, Tokyo) placed in the thermostat at 37° C. Observation sites were selected under 20× object lens, and a video recording system with a time-displaying function was used to record what had been observed on S-VHS tape and preserved. […] Normal saline was administrated at 20 min before ischemia until the end of the observation by continuously intravenous drip via jugular at a dosage of 5 mg/kg/h. PE cannulas were used to ligate non-circulatory mesenteric arteries and veins, so as to observe the arteries and veins for 10 min, and then the ligation was lifted. Time was adjusted to zero and the microcirculatory dynamics under the same visual field was continuously observed for 60 min. DLA was administrated at 20 min before ischemia until the end of the observation by continuously intravenous drip via jugular at a dosage of 5 mg/kg/h. R1 was administrated at 20 min before ischemia until the end of the observation by continuously intravenous drip via jugular at a dosage of 5 mg/kg/h. The combination of DLA and R1 in a weight ratio of 4:1 was administrated at 20 min before ischemia until the end of the observation by continuously intravenous drip via jugular at a dosage of 5 mg/kg/h. The combination of DLA and R1 in a weight ratio of 1:1 was administrated at 20 min before ischemia until the end of the observation by continuously intravenous drip via jugular at a dosage of 5 mg/kg/h. […] Wherein, 6 rats in each group were taken out, these rats were used for observing the following aspects: the venular diameters; leukocytes rolling, adhesion, and emigration and DHR fluorescence intensities of the venular walls. […] Microcirculatory dynamics was continuously recorded using an inverted biomicroscope […] recording system (CC-090, Flovel, Tokyo) and SIT fluorescent camera (C-2400-08, Hamamatsu Photonics, Hamamatsu). 3 sites of the mesenteric venules were measured using Image-Pro Plus 5.0 software from the replayed CD records at the following time points: before ischemia and 1 min, 10 min, 20 min, 30 min, 40 min, 50 min and 60 min after the beginning of the reperfusion. The average diameters were calculated.

| Compound | effect on the diameters of the mesenteric venules after reperfusion (post-administration, 5 mg/kg/h continuous i.v. drip from 20 min after ischemia (DLA: 10 min after I/R), 5 mg/kg) | effect on the diameters of the mesenteric venules after reperfusion (pre-administration, 5 mg/kg/h continuous i.v. drip from 20 min before ischemia, 60 min reperfusion, 5 mg/kg) | effect on the diameters of the mesenteric venules after reperfusion (post-administration, 5 mg/kg/h continuous i.v. drip from 20 min after ischemia (DLA: 10 min after I/R)) | effect on the diameters of the mesenteric venules after reperfusion (pre-administration, 5 mg/kg/h continuous i.v. drip from 20 min before ischemia, 60 min reperfusion) |
| --- | --- | --- | --- | --- |
| CC(C)=CCC[C@](C)(O[C@@H]1O[C@H](CO)[C@@H](O)[C@H](O)[C@H]1O)[C@H]1CC[C@]2(C)[C@@H]1[C@H](O)C[C@@H]1[C@@]3(C)CC[C@H](O)C(C)(C)[C@@H]3[C@@H](O[C@@H]3O[C@H](CO)[C@@H](O)[C@H](O)[C@H]3O[C@@H]3OC[C@@H](O)[C@H](O)[C@H]3O)C[C@]12C [R1, Notoginsenoside R1] | did not cause the significant changes; also recorded: have no significant inhibitory effects | did not cause the significant changes; also recorded: have no significant inhibitory effects | – | – |
| O=C(O)C(O)Cc1ccc(O)c(O)c1 (stereo not shown) [DLA, 3,4-dihydroxyphenyl lactic acid] | – | – | did not cause the significant changes | did not cause the significant changes |

Reference: patent US9101640B2, “Use of Danshensu, Notoginsenoside R1 or their combination in preparation of medicaments for preventing and treating diseases caused by microcirculation disorder” (Tasly Pharmaceutical Group Co., Ltd., priority 2009, dated 2015)
